What all share (assay type): cell-based
Assay [1] has as its system canonical Wnt signaling. The assay can be described thus: ST-Luc (SuperTOPFlash) Luciferase assay in HEK293 cells, 30% Wnt3a-CM. The following applies: Homo sapiens, HEK293; 10 μM compound, 30% Wnt3a-CM, 24 h; relative to DMSO control. The protocol: Inhibition of Wnt signaling by compound No. 1 was quantified in vitro using a Luciferase assay in HEK293 cells transiently transfected with SuperTOPFlash plasmid (ST-Luc) (Veeman M T et al., Curr. Biol. 13: 680-685, 2003) at concentrations from 0.1-10 μM. HEK293 cells were purchased from ATCC (American Type Culture Collection) and maintained according to suppliers recommendations.
Transfection was performed using 80000 HEK293 cells seeded in 48-well plates coated with poly-L lysine. After 24 hours, 0.25 μg total plasmid DNA (0.23 μg SuperTOPFlash+0.02 μg pRL-TK (Renilla)—Promega) and 0.75 μl FuGENE6 (Roche) was combined in a total volume in 25 μl Opti-MEM® (Invitrogen) as described by the manufacturer (Roche). The transfection mixture was added to the plated cells and media were changed after 24 hours.
The Luciferase assay was performed by incubating transfected cells for 24 hours with various concentrations of compound No. 1 in 30% Wnt3a-CM (Wnt3a containing conditioned medium from L Wnt3a cells was harvested as described by ATCC). All treated reporter cells were finally lysed and the firefly luciferase and Renilla activities were measured on a 20/20n Luminometer (Turner BioSystems) as described in the Dual-Glo™ Luciferase Assay System Technical Manual (Promega).
HEK293 cells were transfected, grown and assayed as described in Example 22. 24 hours after seeding, the cells were incubated for an additional 24 hours with 10 μM concentrations of compounds in 30% Wnt3a-CM.
The percent activities shown in Table 3 are calculated relative to DMSO as a control. Some values shown are averages of multiple measurements. Compound XAV939 (Novartis; Huang et al., Nature (2009), 461, pp. 614-20) which is used as a positive control, has an activity of 7%.

Assay [2] concerns SW480 colon carcinoma cells. The assay can be described thus: MTS cell proliferation assay, Table 5. The following applies: Homo sapiens; SW480, 10 μM, 72 h; relative to DMSO control; read-out: Cell proliferation (%) for test compounds. The protocol:
For the experiment giving the results shown in Table 5, cells (3000 per well) were seeded on 96 well plates (eight replicates per treatment). After 24 hours, and daily thereafter, cell culture medium (including 10% FBS) was mixed with 10 μM compounds or with 0.1% DMSO vehicle and then added to the wells. Sixteen wells of seeded control cells, defining incubation time zero (t0=24 hour after cell seeding), were incubated with 20 μl substrate in 100 μl phenol free D-MEM (Invitrogen) for 2 hours, as described in the CellTiter 96® AQueous Non-Radioactive Cell Proliferation Assay protocol (Promega). The A490 was recorded. The treatment samples were likewise measured after 72 hours.
The quantity of reduced MTS product (as measured by the absorbance at 490 nm) is directly proportional to the number of living cells in the culture and thus allows a direct comparison of cell proliferation in each case. DMSO was used as a control. The following formula was used to determine single well relative A490 sample values: ((Sample A490−Average A490t0)*100)/(Average A490t720.1% DMSO control−Average A490t0)
The proliferation of SW480 cells (in percent) is the A492 value relative to that of the DMSO control.
In general terms: Formazan colour is commonly taken as a measure of viable cells.

The subject of assay [3] is canonical Wnt signaling. The assay can be described thus: IC50 in STF/REN HEK293 cells, 50% Wnt3a-CM. To be noted: Homo sapiens; STF/REN HEK293, 50% Wnt3a-CM, 24 h. The protocol: IC50 values were calculated using STF/REN HEK293 cells prepared essentially according to Example 22. Briefly, HEK293 cells (80,000 cells per well) were seeded in 48-well plates coated with poly-L lysine. 24 hours after seeding, the cells were incubated for an additional 24 hours with various compound concentrations in 50% Wnt3a-CM. After compound exposure, the cells were lysed and the firefly luciferase and Renilla activities were measured on a 20/20n Luminometer (Turner BioSystems) as described in the Dual-Glo™ Luciferase Assay System Technical Manual (Promega).
XLfit (idbs) was used to determine the IC50 and GI50 values in inhibition experiments. The data were fit to the following formulae:
IC50: Langmuir Binding Isotherm: fit=((A+(B*x))+(((C−B)*(1−exp((−1*D)*x)))/D)) res=(y−fit)

By IC50 is commonly meant the point on the concentration scale where inhibition reaches its midpoint.

`Cc1ccc(-c2nnc(S[C@H](C)c3nnc(-c4ccncc4)n3-c3ccccc3Cl)o2)cc1` [100b]: the activity at 10 µM in assay [1] was 5%; in assay [2], 66%.
For the molecule `COc1ccc(-n2c(SCCc3nc(-c4ccc(C)cc4)no3)nnc2-c2ccncc2)cc1` [Compound 2], the activity at 10 µM in assay [1] came to 31.8%.
The same measure, in the same setting: to `Cc1ccc(-c2noc(CSc3nnc(-c4ccncc4)n3-c3ccc(Cl)cc3)n2)cc1` [Compound 3] belongs 32.5%.
In assay [1], `COc1ccc(-n2c(OCc3nc(-c4ccc(C)cc4)no3)nnc2-c2ccncc2)cc1` [Compound 4] displayed an activity at 10 µM of 98.4%.
In assay [1], `COc1ccc(-n2c(CCN(C)C)nnc2-c2ccncc2)cc1` [Compound 6] registered an activity at 10 µM of 55.7%.
Regarding `Fc1ccc(-n2c(SCc3nc(-c4ccc(Cl)cc4)no3)nnc2-c2ccncc2)cc1` [Compound 12], the activity at 10 µM in assay [1] worked out at 38.8%. The molecule also showed an IC50 in assay [3] of 10 µM.
The like results for `COc1ccc(-n2c(SCc3nc(-c4cccs4)no3)nnc2-c2ccncc2)cc1` [Compound 13] were, in that order, 34.5% and 7.1 µM.
The molecule `COc1ccc(-n2c(SC)nnc2-c2ccncc2)cc1` [Compound 14] gave an activity at 10 µM in assay [1] of 63.5%.
Same read-out and setting: to `COc1ccc(-n2c(S)nnc2-c2ccncc2)cc1` [Compound 15] belongs 69.1%.
The same measure, in the same setting: to `COc1ccc(-n2c(O)nnc2-c2ccncc2)cc1` [Compound 16] belongs 71.8%; to `Sc1nnc(-c2ccncc2)n1-c1ccc(Cl)cc1` [Compound 17], 76.8%.
In assay [1], `Fc1ccc(-n2c(SCc3nc(-c4cccc(Cl)c4)no3)nnc2-c2ccncc2)cc1` [Compound 21] returned an activity at 10 µM of 90.1%. Also, in assay [3], half-maximal inhibition (IC50) required 10 µM.
The like results for `CCOc1ccc(-n2c(SCc3nc(-c4cccc(Cl)c4)no3)nnc2-c2ccncc2)cc1` [Compound 25] were, in that order, 59% and 10 µM.
In assay [1], `COc1ccc(-n2c(SCc3cn4ccccc4n3)nnc2-c2ccncc2)cc1` [Compound 27] came in with an activity at 10 µM of 80.3%.
Same read-out and setting: to `CCOc1ccc(-n2c(SCc3nnc(C)o3)nnc2-c2ccncc2)cc1` [Compound 30] belongs 78%.
In turn, `COc1ccc(-n2c(SCCNC(C)=O)nnc2-c2ccncc2)cc1` [Compound 33] gave an activity at 10 µM in assay [1] of 79.6%.
The same measure, in the same setting: as for `Cc1ccc(-c2noc(CSc3nnc(-c4cccc(O)c4)n3-c3ccccc3C)n2)cc1` [Compound 45], the figure is 78.1%.
`Cc1ccccc1-n1c(SCc2nc(-c3cccc(O)c3)no2)nnc1-c1ccncc1` [Compound 47]: in assay [1], the activity at 10 µM was 8.7%. The IC50 in assay [3] was determined as 0.95 µM.
Turning to `Cc1ccccc1-n1c(SCc2nc(-c3ccccc3Cl)no2)nnc1-c1ccncc1` [Compound 56], in assay [1], the activity at 10 µM worked out at 55.1%.
The same measure, in the same setting: as for `Cc1ccccc1-n1c(SCc2nc(-c3cccc(C(F)(F)F)c3)no2)ccc1-c1ccncc1` [Compound 57], the figure is 51.8%; as for `Cc1ccc(-c2nc(CSc3nnc(-c4ccncc4)n3-c3ccccc3Cl)sc2C)cc1` [Compound 62], 58%.
Same read-out and setting: to `Cc1ccc(-c2nnc(Sc3nnc(-c4ccncc4)n3-c3ccccc3Cl)s2)cc1` [Compound 63] belongs 99%; to `N#Cc1ccc(-c2nnc(CSc3nnc(-c4ccncc4)n3-c3ccccc3Cl)o2)cc1` [Compound 69], 26%.
Same read-out and setting: as for `Cc1ccc(-c2noc(CSc3nnc(-c4cccnc4)n3-c3ccccc3C)n2)cc1` [Compound 77], the figure is 51%.
As for `Cc1ccc(-n2c(SC(C)c3nc(-c4ccncc4)no3)nnc2-c2ccncc2)cc1C` (centres unmarked) [Compound 79], the activity at 10 µM is 16% in assay [1] and 70% in assay [2].
In assay [1], `CC(Sc1nnc(-c2ccccc2)n1-c1ccc(F)cc1F)c1nc(-c2ccncc2)no1` (centres unmarked) [Compound 80] registered an activity at 10 µM of 32%.
`Cc1ccc(-n2c(SCc3nc(C(C)(C)C)no3)nnc2-c2ccncc2)cc1` [Compound 81] gave an activity at 10 µM in assay [1] of 89%.
Still for that read-out and setting: as for `Cc1ccccc1-n1c(SCC(=O)Nc2ncccn2)nnc1-c1ccncc1` [Compound 82], the figure is 83%; as for `Cc1ccc2nc(CSc3nnc(-c4ccncc4)n3-c3ccccc3C)cc(=O)n2c1` [Compound 85], 43%.
On the same count and under the same terms, to `CC1CCCCC1n1c(SCc2nnc(-c3ccccc3)o2)nnc1-c1cccnc1` (centres unmarked) [Compound 87] belongs 52%; to `Cc1ccccc1-n1c(SCC(=O)NCc2cccs2)nnc1-c1ccncc1` [Compound 88], 99%.
Same read-out and setting: to `Cc1ccccc1-n1c(SCC(=O)Nc2ccc3c(c2)CCC3)nnc1-c1ccncc1` [Compound 89] belongs 94%; to `Cc1ccc(NC(=O)CSc2nnc(-c3ccncc3)n2-c2ccc(C)cc2)cc1` [Compound 92], 84%.
In the case of `Cc1ccc(-n2c(SCC(=O)NC3CCCC3)nnc2-c2ccncc2)cc1` [Compound 93], the activity at 10 µM in assay [1] is 91%.
The same measure, in the same setting: as for `O=C(CSc1nnc(-c2ccncc2)n1-c1ccccc1)Nc1ccccn1` [Compound 97], the figure is 80%.
As to `COc1cc(OC)cc(-c2nnc(SCc3nnc(-c4ccc(C)cc4)o3)n2-c2ccccc2Cl)c1` [Compound 107], the activity at 10 µM was determined as 4.5% in assay [1] and 47% in assay [2].
In assay [1], `Cc1ccc(-c2noc(CS(=O)(=O)c3nnc(-c4ccncc4)n3-c3ccccc3Cl)n2)cc1` [compound 66] yielded an activity at 10 µM of 25.6%. Besides, the IC50 in assay [3] turned out to be 1.75 µM.
`NCCCOCCCOc1cccc(-c2noc(CSc3nnc(-c4ccncc4)n3-c3ccccc3Cl)n2)c1` [compound 67] showed an activity at 10 µM in assay [1] of 12.7%. This molecule gave an IC50 in assay [3] of under 0.1 µM.
The molecule `Cc1ccccc1-c1nnc(CSc2nnc(-c3ccncc3)n2-c2ccccc2Cl)o1` [compound 71] registered an activity at 10 µM in assay [1] of 31%.
Still for that read-out and setting: as for `Cc1ccc(-c2nnc(CSc3nnc(-c4ccncc4)n3-c3ccccc3Cl)o2)cc1Br` [compound 73], the figure is 29%.
`Cc1ccc(-c2nnc(CSc3nnc(-c4ccncc4)n3-c3ccccc3Cl)o2)s1` [compound 74]: the activity at 10 µM in assay [1] stood at 13%. The IC50 in assay [3] turned out to be 0.371 µM.
On to `Cc1ccc(-c2nnc(CCc3nnc(-c4ccncc4)n3-c3ccccc3Cl)o2)cc1` [compound 101], for which the activity at 10 µM in assay [1] is 23%; in assay [2], 47%.
In the same order, the values of `Cc1cc2nc(CSc3nnc(-c4ccncc4)n3-c3ccccc3Cl)cc(=O)n2cc1C` [compound 103] are 20% and 67%.
As to `Cc1ccc(-c2nnc(CSc3nnc(-c4cc(O)cc(O)c4)n3-c3ccccc3Cl)o2)cc1` [compound 106, (5-((5-p-tolyl-1,3,4-oxadiazol-2-yl)methylthio)-4-(2-chlorophenyl)-4H-1,2,4-triazol-3-yl)benzene-1,3-diol], the activity at 10 µM came out at 14.5% in assay [1] and 63% in assay [2].
In turn, `Cc1ccc(-c2nnc(CSc3nnc(-c4cnc(N)nc4)n3-c3ccccc3Cl)o2)cc1` [compound 132, 5-(5-((5-p-tolyl-1,3,4-oxadiazol-2-yl)methylthio)-4-(2-chlorophenyl)-4H-1,2,4-triazol-3-yl)pyrimidin-2-amine] returned an activity at 10 µM in assay [1] of 32%.

Values taken from US8883827B2, “Azole derivatives as WTN pathway inhibitors” (Oslo University Hospital HF, priority 2009, dated 2014).
